According to publication PMC8041276 (ACS Chemical Neuroscience, 2021):

Assays:
5-HT6R [1] = target: T1, 5-HT6R (Homo sapiens, UniProt P50406); test: Basal cAMP production (constitutive Gs signaling) in NG108-15 cells transiently expressing 5-HT6R, CAMYEL BRET; assay type: cell-based; parameters: expressed in transfected cells; host or cells: NG108-15 (transient, Lipofectamine 2000, cotransfected with the CAMYEL sensor); conditions: for functional profile: 5-HT6R-dependent Gs signaling, NG108-15 cells; for IC50: decrease of basal cAMP, NG108-15 cells transiently expressing 5-HT6R
Description: NG108-15 cells were grown in Dulbecco’s modified Eagle’s medium (DMEM) supplemented with 10% dialyzed fetal calf serum, 2% hypoxanthine/aminopterin/thymidine (Life Technologies), and antibiotics. cAMP measurement was performed in cells transiently expressing 5-HT6R using the bioluminescence resonance energy transfer (BRET) sensor for cAMP, CAMYEL (cAMP sensor using YFP-Epac-RLuc).[45] NG108-15 cells were cotransfected in suspension with 5-HT6R (0.5 μg DNA/million cells) and CAMYEL constructs (1 μg DNA/million cells), using Lipofectamine 2000 according to the manufacturer’s protocol, and plated in white 96-well plates (Greiner) at a density of 50 000 cells per well. […] Coelanterazine H (Molecular Probes) was added at a final concentration of 5 μM and left at room temperature for 5 min. BRET was measured using a Mithras LB 940 plate reader (Berthold Technologies).

5-HT6R [2] = target: T1, 5-HT6R; test: Inhibition of 5-CT-stimulated cAMP production in 1321N1 cells; assay type: cell-based; parameters: expressed in transfected cells; conditions: antagonism of 5-CT (1000 nM)-stimulated cAMP
Description: The effect of compounds 18, 22, 27, and 28 on adenylate cyclase was examined in 1321N1 cells expressing the 5-HT6R.
The properties of compounds 18, 22, 27, 28 to inhibit cAMP production induced by 5-CT (1000 nM), a 5-HT6R agonist, were evaluated. Compounds were tested in triplicate at eight concentrations (10^–11–10^–4 M). The level of cAMP was measured using frozen recombinant 1321N1 cells expressing the human serotonin 5-HT6R (PerkinElmer). Total cAMP was measured using the LANCE cAMP detection kit (PerkinElmer), according to the manufacturer’s recommendations. For quantification of cAMP levels, 2000 cells/well (5 μL) were incubated with a mixture of compounds (5 μL) for 30 min at room temperature in 384-well white opaque microtiter plate. After incubation, the reaction was stopped and cells were lysed by the addition of 10 μL of working solution (5 μL of Eu-cAMP and 5 μL of ULight-anti-cAMP) for 1 h at room temperature. Time-resolved fluorescence resonance energy transfer (TR-FRET) was detected by an Infinite M1000 Pro (Tecan) using instrument settings from LANCE cAMP detection kit manual. Kb values were calculated from Cheng–Prusoff equation specific for the analysis of functional inhibition curves: Kb = IC50/(1 + A/EC50) where A represents agonist concentration, IC50 the concentration of antagonist producing a 50% reduction in the response to agonist, and EC50 the agonist concentration which causes a half of the maximal response.[44]

5-HT7R = target: T2, 5-HT7R (Homo sapiens, UniProt P34969); test: [3H]-5-CT radioligand binding assay, HEK293 cells; conditions: mean of three experiments
T2 construct: expressed in transfected cells
Description: All experiments were carried out according to the previously published procedures.[41]−[43] HEK293 cells stably expressing human 5-HT1A, 5-HT6, 5-HT7b, and D2L receptors (prepared with the use of Lipofectamine 2000) or CHO-K1 cells with plasmid containing the sequence coding for the human serotonin 5-HT2A receptor (PerkinElmer) were maintained at 37 °C in a humidified atmosphere containing 5% CO2 and grown in Dulbecco’s modified Eagle’s medium containing 10% dialyzed fetal bovine serum and 500 μg/mL G418 sulfate. For membrane preparation, cells were cultured in 150 cm^2 flasks, grown to 90% confluence, washed twice with prewarmed to 37 °C phosphate buffered saline (PBS), and centrifuged (200g) in PBS containing 0.1 mM EDTA and 1 mM dithiothreitol. Prior to membrane preparation, pellets were stored at −80 °C. Cell pellets were thawed and homogenized in 10 volumes of assay buffer using an Ultra Turrax tissue homogenizer and centrifuged twice at 35 000g for 15 min at 4 °C, with incubation for 15 min at 37 °C between the centrifugations. The composition of the assay buffers was experimentally selected to achieve the maximum signal window (more details in Supporting Information). All assays were carried out in a total volume of 200 μL in 96-well plates for 1 h at 37 °C except 5-HT1AR and 5-HT2AR which were incubated at room temperature and 27 °C, respectively. The process of equilibration was terminated by rapid filtration through Unifilter plates with a 96-well cell harvester, and radioactivity retained on the filters was quantified on a Microbeta plate reader (PerkinElmer, USA). For displacement studies the assay samples contained the following as radioligands (PerkinElmer, USA): 2.5 nM [^3H]-8-OH-DPAT (135.2 Ci/mmol) for 5-HT1AR; 1 nM [^3H]-ketanserin (53.4 Ci/mmol) for 5-HT2AR; 2 nM [^3H]-LSD (83.6 Ci/mmol) for 5-HT6R; 0.8 nM [^3H]-5-CT (39.2 Ci/mmol) for 5-HT7R or 2.5 nM [^3H]-raclopride (76.0 Ci/mmol) for D2LR. Nonspecific binding was defined in the presence of 10 μM 5-HT in 5-HT1AR and 5-HT7R binding experiments, whereas 20 μM mianserin, 10 μM methiothepine, and 10 μM haloperidol were used in 5-HT2AR, 5-HT6R, and D2LR assays, respectively. Each compound was tested in triplicate at seven concentrations (10^–10–10^–4 M). The inhibition constants (Ki) were calculated from the Cheng–Prusoff equation.[44]

T1 sequence (P50406 whole entry): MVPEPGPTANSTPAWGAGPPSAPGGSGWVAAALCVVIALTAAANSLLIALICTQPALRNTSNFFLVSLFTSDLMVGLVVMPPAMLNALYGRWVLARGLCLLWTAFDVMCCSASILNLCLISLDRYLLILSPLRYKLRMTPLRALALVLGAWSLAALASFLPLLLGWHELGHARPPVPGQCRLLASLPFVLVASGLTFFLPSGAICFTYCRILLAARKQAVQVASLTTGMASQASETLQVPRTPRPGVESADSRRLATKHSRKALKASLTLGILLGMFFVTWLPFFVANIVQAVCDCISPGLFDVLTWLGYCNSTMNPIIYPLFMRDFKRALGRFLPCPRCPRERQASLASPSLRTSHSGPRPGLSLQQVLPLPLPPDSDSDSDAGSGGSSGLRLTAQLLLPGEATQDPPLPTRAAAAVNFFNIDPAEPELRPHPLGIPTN
T2 sequence (P34969 1-432): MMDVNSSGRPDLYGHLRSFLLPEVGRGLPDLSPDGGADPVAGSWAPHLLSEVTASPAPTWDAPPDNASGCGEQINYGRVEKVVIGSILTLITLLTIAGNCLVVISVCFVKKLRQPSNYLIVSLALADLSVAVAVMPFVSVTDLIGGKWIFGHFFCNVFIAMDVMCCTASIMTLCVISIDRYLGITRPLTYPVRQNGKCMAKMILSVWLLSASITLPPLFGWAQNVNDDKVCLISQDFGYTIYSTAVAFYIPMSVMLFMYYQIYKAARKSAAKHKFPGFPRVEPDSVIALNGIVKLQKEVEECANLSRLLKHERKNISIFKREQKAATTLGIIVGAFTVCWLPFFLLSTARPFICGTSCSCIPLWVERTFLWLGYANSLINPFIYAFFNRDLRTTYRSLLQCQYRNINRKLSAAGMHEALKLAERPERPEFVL

With `O=C(N[C@@H]1CCNC1)c1ccn(S(=O)(=O)c2cccc(Cl)c2)c1-c1ccc(F)cc1` [Compound 27, (R)-2-(4-Fluorophenyl)-1-[(3-chlorophenyl)sulfonyl]-N-(pyrrolidin-3-yl)-1H-pyrrole-3-carboxamide] the functional profile (5-HT6R [1]) was “inverse agonist”, the IC50 (5-HT6R [1]) was 0.265 µM and the Kb (5-HT6R [2]) was 0.0114 µM. For the same molecule, the Ki (5-HT7R) was 42 µM.

With `O=C(N[C@H]1CCNC1)c1ccn(S(=O)(=O)c2cccc(Cl)c2)c1-c1ccc(F)cc1` [Compound 28, (S)-2-(4-Fluorophenyl)-1-[(3-chlorophenyl)sulfonyl]-N-(pyrrolidin-3-yl)-1H-pyrrole-3-carboxamide] the functional profile (5-HT6R [1]) was “inverse agonist”, the IC50 (5-HT6R [1]) was 0.14 µM and the Kb (5-HT6R [2]) was 0.0076 µM. For the same molecule, the Ki (5-HT7R) was 3.53 µM.
